According to patent publication US9409952B2, “Peptide-compound cyclization method” (Chugai Seiyaku Kabushiki Kaisha, priority 2011, dated 2016):
Where two headings read alike, the source gives them in different places. Starred links: 1 amine or outer side, 2 acyl side, 3 side chain; linkers in the order of their positions; H or OH if unused. Positions of bridges follow the written chain, without caps; N, C: chain ends. Non-standard residues stand in square brackets, D forms with d. Residues, ends and D or L forms follow the SMILES beside them. *: point of attachment. X2 = O=C(C[C@H](N[*:1])C(F)(F)F)[*:2]; NMeF = CN[C@@H](Cc1ccccc1)C(=O)O; NMeGABA = CN(CCCC(=O)[*:2])[*:1]; NMeI = CC[C@H](C)[C@H](NC)C(=O)O; NMeβAla = CN(CCC(=O)[*:2])[*:1]; NMeL = CN[C@@H](CC(C)C)C(=O)O; NMeV = CN[C@H](C(=O)O)C(C)C; NMeS = CN[C@@H](CO)C(=O)O; NMeA = CN[C@@H](C)C(=O)O; Piperidide = C1CCN(*)CC1; dNMeA = CN[C@H](C)C(=O)O; β3hA = C[C@H](N)CC(=O)O; Sar = CNCC(=O)O; tBu = CC(C)(C)*

Tests used:
[1] = Metabolic stability in human hepatic microsome; format: in vitro ADME; settings: microsomes
[2] = PAMPA (parallel artificial membrane permeability assay); format: in vitro ADME; settings: PAMPA
Outline: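 Artificial membrane was 10% (w/v) egg lecithin plus 0.5% (w/v) cholesterol in dodecane on a PVDF filter. A 10 mM DMSO stock was added at 0.5% (v/v) to donor buffer (50 mM MOPSO, pH 6.5, 5.0% glycocholic acid). After 18 h at 37 °C, LC/MS or LC/UV gave donor and acceptor levels for Pe.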

[3] = pH 7.4, human hepatic microsome, NADPH(+), read-out: CL NADPH(+)
[4] = membrane permeation rate (Pe), 50 mM MOPSO buffer pH 6.5 with 5.0% glycocholic acid, 37° C., 18 hours, read-out: iPAMPA Pe

SMILES	microsomal CLint at 1 uM [1, 3] [µL/min/mg]	Papp at 18 hours, 50 µM [2, 4] [×10⁻⁶ cm/s]	microsomal CLint at 1 uM ([1]; human, pH 7.4, CL NADPH(+)) [µL/min/mg]	Papp at 18 hours, 50 µM ([2]; pH 6.5) [×10⁻⁶ cm/s]
CC[C@H](C)[C@H]1C(=O)N[C@@H](C)C(=O)N[C@H](C(=O)N2CCCCC2)CC(=O)N[C@H](C(C)C)C(=O)N[C@@H](Cc2ccccc2)C(=O)N(C)[C@@H](C(C)C)C(=O)N(C)[C@@H](C)C(=O)N[C@@H]([C@@H](C)O)C(=O)N(C)CC(=O)N(C)[C@@H](CC(C)C)C(=O)N1C [DP-254] ([dV]F[NMeV][NMeA]T[Sar][NMeL][NMeI]AD-Piperidide; lactam N-10)	13	3.5	–	–
CC(C)C[C@@H]1NC(=O)[C@H](CC(C)C)N(C)C(=O)[C@H](C(C)C)NC(=O)[C@H](CC(C)C)N(C)C(=O)CN(C)C(=O)[C@H](C(C)C)NC(=O)[C@H](CO)N(C)C(=O)[C@H](CC(C)C)N(C)C(=O)C[C@H](C)NC(=O)[C@H](CC(C)C)N(C)C(=O)[C@@H](C)NC1=O [DP-653] (cyclo(L[dA][NMeL][β3hA][NMeL][NMeS]V[Sar][NMeL]V[NMeL]))	235	33	–	–
CC(C)C[C@@H]1NC(=O)[C@H](CC(C)C)N(C)C(=O)[C@H](CC(C)C)N(C)C(=O)[C@@H](C)N(C)C(=O)C[C@@H](C(=O)N(C)[C@@H](Cc2ccccc2)C(=O)N[C@@H](C)C(=O)N2CCCCC2)NC(=O)[C@H](CC(C)C)N(C)C(=O)[C@H](Cc2ccccc2)NC(=O)[C@H](Cc2ccccc2)N(C)C(=O)[C@H](C)NC(=O)[C@H]([C@@H](C)O)NC1=O [DP-451] ([dNMeA][NMeL][NMeL]LTA[NMeF]F[NMeL]D[NMeF]A-Piperidide; lactam N-10)	14	35	–	–
CC[C@H](C)[C@@H]1NC(=O)[C@@H](C)N(C)C(=O)C[C@@H](C(=O)N2CCCCC2)NC(=O)[C@H](Cc2ccccc2)NC(=O)[C@H]([C@@H](C)O)NC(=O)[C@H](CC(C)C)NC(=O)[C@H](CC(C)C)NC(=O)CN(C)C(=O)[C@H](CC(C)C)NC(=O)[C@H](C)NC(=O)[C@H](CC(C)C)NC1=O [DP-327] ([dNMeA]ILAL[Sar]LLTFD-Piperidide; lactam N-11)	70	3.5	–	–
CC(C)C[C@@H]1NC(=O)C[C@@H](C(=O)N2CCCCC2)NC(=O)[C@H]([C@@H](C)O)NC(=O)[C@H](CC(C)C)N(C)C(=O)CN(C)C(=O)[C@H](Cc2ccccc2)N(C)C(=O)[C@H](C)N(C)C1=O [DP-745] (L[NMeA][NMeF][Sar][NMeL]TD-Piperidide; lactam N-7)	232	17	–	–
CC[C@H](C)[C@@H]1NC(=O)[C@H](CC(C)C)N(C)C(=O)[C@H](Cc2ccccc2)N(C)C(=O)[C@@H](C(C)C)NC(=O)C[C@H](C)NC(=O)[C@H](CC(C)C)N(C)C(=O)[C@H](C)N(C)C(=O)[C@H]([C@@H](C)O)NC(=O)[C@H](Cc2ccccc2)N(C)C(=O)[C@H](C)N(C)C1=O [DP-780] (cyclo(I[NMeA][NMeF]T[NMeA][NMeL][β3hA][dV][NMeF][NMeL]))	–	–	249	41
CC(C)C[C@H]1C(=O)N[C@@H](COC(C)(C)C)C(=O)N[C@@H](C)CC(=O)N[C@H](C)C(=O)N(C)[C@@H](C)C(=O)N(C)[C@@H](Cc2ccccc2)C(=O)N(C)[C@@H](C)C(=O)N[C@@H]([C@@H](C)O)C(=O)N(C)[C@@H](C)C(=O)N1C [DP-786] (cyclo([NMeA][NMeF][NMeA]T[NMeA][NMeL]S(tBu)[β3hA][dA]))	14	5.9	–	–
CC(C)C[C@H](NC(=O)CN(C)C(=O)[C@@H]1CC(=O)N[C@H](C)C(=O)N[C@@H](C(C)C)C(=O)N(C)[C@@H](Cc2ccccc2)C(=O)N(C)[C@@H](CC(C)C)C(=O)N(C)[C@@H](C)C(=O)N[C@@H]([C@@H](C)O)C(=O)N[C@@H](Cc2ccccc2)C(=O)N1)C(=O)N1CCCCC1 [DP-571] ([dA]V[NMeF][NMeL][NMeA]TFD[Sar]L-Piperidide; lactam N-8)	62	23	–	–
C=C1CCC(=O)N[C@@H](CC(C)C)C(=O)N2CCC[C@H]2C(=O)N(C)[C@@H](C(C)C)C(=O)N[C@@H](Cc2ccccc2)C(=O)N(C)[C@@H](Cc2ccccc2)C(=O)N(C)[C@@H](CC(C)C)C(=O)N[C@@H](C)C(=O)N(C)[C@@H]([C@@H](C)CC)C(=O)N[C@H](C(=O)N2CCCCC2)Cc2ccc1cc2 [DP-869]	331	0.86	–	–
CC[C@H](C)[C@H](NC(=O)[C@@H](NC(=O)[C@@H]1CC(=O)N(C)CCC(=O)N[C@@H](Cc2ccccc2)C(=O)N(C)[C@@H](Cc2ccccc2)C(=O)N(C)[C@@H](CC(C)C)C(=O)N[C@@H]([C@@H](C)O)C(=O)N(C)[C@@H](C)C(=O)N(C)[C@@H](CC(C)C)C(=O)N[C@@H](C(C)C)C(=O)N(C)[C@@H](CC(C)C)C(=O)N[C@@H](COC(C)(C)C)C(=O)N(C)[C@@H](CC(C)C)C(=O)N1)C(C)C)C(=O)N1CCCCC1 [DP-954] ([NMeβAla]F[NMeF][NMeL]T[NMeA][NMeL]V[NMeL]S(tBu)[NMeL]DVI-Piperidide; lactam N-12)	26	0.1	–	–
CC(C)C[C@@H]1NC(=O)[C@H](CO)N(C)C(=O)C[C@@H](C(F)(F)F)NC(=O)[C@H](CC(C)C)N(C)C(=O)[C@H](CC(C)C)N(C)C(=O)[C@@H](C)NC(=O)[C@H](C)NC(=O)[C@H](CC(C)C)N(C)C(=O)[C@H](CC(C)C)NC(=O)[C@H](CC(C)C)N(C)C(=O)CN(C)C1=O [DP-657] (cyclo(A[dA][NMeL][NMeL][X2][NMeS]L[Sar][NMeL]L[NMeL]))	157	24	–	–
CC(C)C[C@H]1C(=O)N(C)[C@@H](C(C)C)C(=O)N[C@@H](Cc2ccccc2)C(=O)N[C@H](C(=O)N2CCCCC2)CC(=O)N(C)CCCC(=O)N[C@@H](COC(C)(C)C)C(=O)N(C)[C@@H](CC(C)C)C(=O)N(C)[C@@H](Cc2ccccc2)C(=O)N[C@@H]([C@@H](C)O)C(=O)NCC(=O)N1C [DP-277] ([NMeGABA]S(tBu)[NMeL][NMeF]TG[NMeL][NMeV]FD-Piperidide; lactam N-10)	389	38	–	–
CC(C)C[C@H]1C(=O)N(C)[C@@H](Cc2ccccc2)C(=O)N[C@@H](C)CC(=O)N[C@H](C(C)C)C(=O)N[C@@H](C)C(=O)N[C@@H]([C@@H](C)O)C(=O)N(C)[C@@H](C)C(=O)N[C@@H](Cc2ccccc2)C(=O)N1C [DP-796] (cyclo(AT[NMeA]F[NMeL][NMeF][β3hA][dV]))	66	20	–	–
CC[C@H](C)[C@@H]1NC(=O)CCN(C)C(=O)C[C@@H](C(=O)N2CCCCC2)NC(=O)[C@H](Cc2ccccc2)N(C)C(=O)[C@H](CC(C)C)NC(=O)[C@H](CC(C)C)N(C)C(=O)[C@H](CC(C)C)NC(=O)[C@H]([C@@H](C)O)NC(=O)[C@H](Cc2ccccc2)NC(=O)[C@H](C(C)C)N(C)C1=O [DP-425] ([NMeβAla]I[NMeV]FTL[NMeL]L[NMeF]D-Piperidide; lactam N-10)	150	27	–	–
CC[C@H](C)[C@@H]1NC(=O)[C@H](Cc2ccccc2)NC(=O)[C@H](CC(C)C)NC(=O)CNC(=O)[C@H]([C@@H](C)O)NC(=O)[C@H](Cc2ccccc2)NC(=O)[C@H](C)N(C)C(=O)C[C@@H](C(=O)N2CCCCC2)NC(=O)[C@H](Cc2ccccc2)NC(=O)[C@H](CC(C)C)N(C)C1=O [DP-436] ([NMeA]FTGLFI[NMeL]FD-Piperidide; lactam N-10)	142	45	–	–
CC(C)C[C@H]1C(=O)N(C)[C@@H](C)C(=O)N[C@H](C(=O)N2CCCCC2)CC(=O)N(C)[C@@H](C)C(=O)N(C)[C@@H](C)C(=O)N[C@@H](C)C(=O)N(C)[C@@H](C)C(=O)N(C)[C@@H](CC(C)C)C(=O)N(C)[C@@H](Cc2ccccc2)C(=O)N[C@@H]([C@@H](C)O)C(=O)N(C)[C@@H](C)C(=O)N1C [DP-480] ([NMeA][NMeA]A[NMeA][NMeL][NMeF]T[NMeA][NMeL][NMeA]D-Piperidide; lactam N-11)	15	6.6	–	–
CC[C@H](C)[C@@H]1NC(=O)[C@H](Cc2ccccc2)N(C)C(=O)[C@H](Cc2ccccc2)NC(=O)[C@H]([C@@H](C)O)NC(=O)[C@H](C(C)C)N(C)C(=O)[C@H](CC(C)C)NC(=O)[C@H](CC(C)C)N(C)C(=O)CCCN(C)C(=O)C[C@@H](C(=O)N2CCCCC2)NC(=O)[C@H](C)NC(=O)[C@H](C)N(C)C1=O [DP-274] ([NMeGABA][NMeL]L[NMeV]TF[NMeF]I[NMeA]AD-Piperidide; lactam N-11)	–	–	183	25
CC(C)C[C@H]1C(=O)N[C@H](C(=O)N2CCCCC2)CC(=O)N[C@H](C)C(=O)N(C)[C@@H](CC(C)C)C(=O)N(C)[C@@H](Cc2ccccc2)C(=O)N(C)[C@@H](CC(C)C)C(=O)N[C@@H]([C@@H](C)O)C(=O)N1C [DP-740] ([dA][NMeL][NMeF][NMeL]T[NMeL]D-Piperidide; lactam N-7)	483	31	–	–
CC[C@H](C)[C@H](NC(=O)[C@@H](NC(=O)[C@H](Cc1ccccc1)NC(=O)[C@H](CC(C)C)N(C)C(=O)[C@@H]1CC(=O)N(C)CCC(=O)N(C)[C@@H](C)C(=O)N[C@@H](CC(C)C)C(=O)N[C@@H]([C@@H](C)O)C(=O)N(C)[C@@H](Cc2ccccc2)C(=O)N(C)[C@@H](CC(C)C)C(=O)N(C)[C@@H](Cc2ccccc2)C(=O)N1)C(C)C)C(=O)N1CCCCC1 [DP-930] ([NMeβAla][NMeA]LT[NMeF][NMeL][NMeF]D[NMeL]FVI-Piperidide; lactam N-8)	168	0.46	–	–
